Data on 1 compound can be found in article PMC3899824 (Investigational new drugs, 2013).

Data set [1] deals with H69S small cell lung cancer cells. The note with it: read-out: IC50, nM (Mean ± SEM), 72h, MTT.
Data set [2] concerns Panc-1 pancreatic cells. The note with it: read-out: IC50, nM (Mean ± SEM); Panc-1, 72h, MTT.
In data set [3] the target is FLT-1. The note with it: FLT-1, at pharmacologically-achievable concentrations; cited from earlier work.
Data set [4] relates to U266 myeloma cells. The note with it: read-out: IC50, nM (Mean ± SEM); U266, 72h, MTT.
In data set [5] the test system is DU-145 prostate cells. The note with it: read-out: IC50, nM (Mean ± SEM); DU-145, 72h, MTT.
For data set [6], the system named is DU-145 (Prostate Cancer) human tumor xenograft. The note with it: 55 mg/kg IP, Dailyx5, off 7d, repeat 2×.
For data set [7] the following is noted: 50–55 mg/kg IP, daily × 5 days, 5 to 7 days off, 2–3 courses.
Data set [8] has as its system NIH-H929 myeloma cells. The note with it: read-out: IC50, nM (Mean ± SEM); NIH-H929, 72h, MTT.
In data set [9] the test system is tubulin. Briefly: Cell-free tubulin polymerization assay. The note with it: 5 μM, 60m at 340 nm. Format: biochemical.
Data set [10] has as its system 8226/S multiple myeloma cells. The note with it: 24h, 25-100 nM.
Data set [11] has as its system MM.1S multiple myeloma cells. Briefly: Apoptosis by AnnexinV/PI flow cytometry, MM.1S. Format: cell-based, human. The note with it: 200 nM PC-046 24h, without active caspase inhibitor. A general note: Flow cytometry measures light scatter and fluorescence of single cells or particles in a stream.
Data set [12] deals with caspases 3, 8 and 9 in MM.1S cells. Briefly: Western blot of caspases 3, 8 and 9. The note with it: 24h, 0 – 500 nM. (In general: In western blotting, separated proteins are transferred to a membrane and probed.)

Regarding `COc1ccc(-c2cnc(-c3ccncc3-c3cccc(OC)c3)o2)cc1` [PC-046, 5-(4-methoxyphenyl)pyridine-4-yl], the IC50 (usually the concentration that inhibits the measured activity by half) is 240 ± 10.9 nM in [1]; 215 ± 49.4 nM in data set [2]; 70.1 ± 16.2 nM in [4]; 160 ± 39.4 nM in data set [5]; 163 ± 13.9 nM in data set [8]. The “kinase inhibition in vitro” value in [3] is reported as “inhibit”. Moreover, the “Mean (SD), mm^3, DPC046 (tumor AUC)” value in data set [6] (control 69969.6 (22735.3)) is 45801.8 (23344.4) mm^3. For the same compound, the “Tumor AUC % Change” value in data set [6] (vs control, p 0.04886) is −34.50%. In addition, in data set [7], the lethality entry is reported as “no lethality”. Also, in data set [7], the “loss of body weight” value is “about 10%”. The “effect on tubulin polymerization” value in data set [9] is on record as “inhibits tubulin polymerization”. The “cell cycle effect (DNA content)” value in data set [10] is reported as “significant accumulation of cells in S-phase”. In data set [11], this compound had an AnnexinV-positive cells of 32.6%. In addition, the “caspase activation by western blot” value in data set [12] is “cleavage of three major caspases, 3, 8, and 9”.
